Test results from patent US20220202859A1, “CANCER TREATMENT USING CD38 INHIBITOR AND/OR LENALIDOMIDE AND T-CELLS EXPRESSING A CHIMERIC ANTIGEN RECEPTOR” (CRISPR THERAPEUTICS AG, priority 2020, published 2022).

Key:
[1] = test system: NK cells; assay: Daratumumab in PBMC culture: NK cell frequency and numbers; type: cell-based, human
Protocol: Based on the expression levels of CD38 on NK and T cells, the effect of an anti-CD38 antibody, daratumumab (TAB-236, Creative Biolabs), on such cells was assessed. […] The effect of 10% complement on the cell cultures was also tested. Untreated cells and cells treated with 0.01, 0.1 or 1 μg/mL isotype control mAb (human IgG1k) (cat #403501, BioLegend) were used as controls. After 96 hours of culture, NK and T cell frequency and numbers were measured.

[2] = test system: T cells; assay: Daratumumab in PBMC culture: T cell frequency and numbers; type: cell-based, human; conditions: 0.01, 0.1 or 1 μg/mL, 96 hours
Protocol: Based on the expression levels of CD38 on NK and T cells, the effect of an anti-CD38 antibody, daratumumab (TAB-236, Creative Biolabs), on such cells was assessed. PBMCs from a healthy donor were cultured for 96 hours in media containing 0.01, 0.1, or 1 μg/mL of daratumumab. The effect of 10% complement on the cell cultures was also tested. Untreated cells and cells treated with 0.01, 0.1 or 1 μg/mL isotype control mAb (human IgG1k) (cat #403501, BioLegend) were used as controls. After 96 hours of culture, NK and T cell frequency and numbers were measured.

[3] = test system: anti-BCMA CAR T cells; assay: Daratumumab on anti-BCMA CAR T cell numbers, frequency and activation; type: cell-based, human
Protocol: To assess whether daratumumab treatment affects CAR T cells with a disrupted β2M gene, anti-BCMA CAR T cells generated in Example 1 were treated with daratumumab with or without 10% complement. After a 72 hour culture period, anti-BCMA CAR T cell numbers and frequency were measured in a flow cytometry assay as described in Example 3 (FIGS. 12A-12B).
To determine if higher concentrations of daratumumab (10 μg/mL) activates CAR T cells and causes subsequent proliferation or activation-induced cell death, anti-BCMA CAR T cells deficient in B2M were cultured with daratumumab at concentrations of 0.1, 1 or 10 μg/mL for 24 hours. Untreated cells or anti-BCMA CAR T cells deficient in B2M treated with IgG1k isotype control mAb were used as controls.

[4] = test system: NK cells; assay: NK cell-mediated CAR T cell lysis after daratumumab pre-treatment of NK cells (DAPI cell-kill assay); type: cell-based, human
Protocol: To determine if daratumumab blunts NK-cell mediated CAR T cell lysis, anti-BCMA CAR T cells were co-cultured with purified NK cells that were pre-treated for 60 hours with either daratumumab or isotype control mAb at concentrations of 0.01, 0.1, or 1 μg/mL (FIG. 13A). At the end of the 60 hour pre-treatment period, 50,000 efluor-labelled anti-BCMA CAR T cells were added to the plate containing 150,000 NK cells and Dara/isotype control, and incubated for an additional 24 hours. At the end of the 24-hour co-culture period, anti-BCMA CAR T cell lysis was measured in a cell-kill assay with DAPI.
Specifically, the anti-BCMA CAR T cells were labeled with 5 μM efluor670 (Cat #65-0840-90; ThermoFisher Scientific), washed and incubated in co-cultures with the NK cells at a 3:1 (NK:T) ratio. The co-culture was incubated 24 hr. After incubation, wells were washed and media was replaced with 150 μL of 1× FACS buffer containing a 1:500 dilution of 5 mg/mL DAPI (Molecular Probes) and 12.5 μL of CountBright beads (C36950; ThermoFisher Scientific).
To determine if 10 μg/mL daratumumab blunts NK-cell mediated CAR T cell lysis, anti-BCMA CAR T cells deficient in B2M were co-cultured with purified NK cells that were pre-treated for 60 hours with either daratumumab or isotype control mAb at concentrations of 0.1, 1 or 10 μg/mL. Briefly, NK cells were plated at 50,000 or 150,000 cells per well and treated with daratumumab or the isotype control at concentrations of 0, 0.1, 1 and 10 μg/mL. After 60 hours of treatment of NK cells with daratumumab, the anti-BCMA CAR T cells were labeled with 5 μM efluor670 (Cat #65-0840-90; ThermoFisher Scientific), washed and seeded at 50,000 cells per well in co-cultures with the daratumumab-treated NK cells to make 1:1 or 3:1 (NK:T) ratio. The co-culture was incubated for further 24 hr. […] The cells were analyzed for cell viability by flow cytometry (i.e., viable cells being negative for DAPI staining) Pre-treatment with daratumumab protected anti-BCMA CAR T cell from NK induced cell lysis in a dose-dependent manner (FIGS. 14B-14C). […]

[5] = test system: NK cells; assay: High daratumumab concentrations in NK/CAR T co-culture: NK cell numbers; type: cell-based, human; conditions: 72 hours
Protocol: (§1) Daratumumab is prescribed in the clinic at a dose of 16 mg/kg (225 μg/mL equivalent). To determine the effect of daratumumab at high concentrations on NK and CAR T cells, anti-BCMA CAR T cells deficient in B2M were co-cultured with purified NK cells that were pre-treated for 60 hours with either human IgGl^-k or daratumumab, each at concentrations of 0.01, 0.1, 1, 10, 100 or 300 μg/mL using methods as described in the previous examples. Flow cytometry was used to assess NK and CAR T cells numbers 72 hours after co-culturing with pre-treated NK cells using methods as described in the previous examples.

[6] = test system: anti-BCMA CAR T cells; assay: High daratumumab concentrations in NK/CAR T co-culture: CAR T cell numbers; type: cell-based, human; conditions: up to 300 μg/mL; 72 hours
Protocol: as §1

[7] = test system: MM.1S tumors; assay: Daratumumab plus anti-BCMA CAR-T cells in subcutaneous MM.1S xenograft model; type: in vivo, NOG mice; conditions: high dose 2.4×10^6 CAR+ T cells iv day 0; daratumumab 15 mg/kg IP twice weekly
Protocol: The effect of combining daratumumab with anti-BCMA CAR-T cell treatment was tested in a subcutaneous MM.1S xenograft model in immunocompromised NOG mice (NOD.Cg-Prkdc^scidIl2rg^tm1Sug/JicTac). In brief, 5 to 8-week old female NOG mice were individually housed in ventilated microisolator cages and maintained under pathogen-free conditions. The animals each received a subcutaneous inoculation in the right flank of 5×10^6 MM.1S cells in 50% Matrigel. When the mean tumor volume reached 150 mm^3 (approximately 125 to 175 mm^3), the mice were randomized into groups with 5 mice per group. Tested groups included an untreated arm, daratumumab only treatment, anti-BCMA CAR-T cell only treatment (low dose or high dose), and anti-BCMA CAR-T cell (low dose or high dose) in combination with daratumumab. Anti-BCMA CAR-T cells were dosed by intravenous injection of 0.8×10^6 (low dose) or 2.4×10^6 (high dose) CAR^+ T cells at day 0. Daratumumab was dosed IP at 15 mg/kg, twice weekly, starting 2 days prior to anti-BCMA CAR-T cell dosing.
Tumor volume and body weights were measured twice weekly and individual mice were euthanized when their tumor volume reached ≥2000 mm^3.

[8] = test system: multiple myeloma; conditions: third-line or fourth-line therapy; approximate; cited from earlier work
[9] = human, in vivo; cited from earlier work

Substance: daratumumab: fully human IgGκ monoclonal antibody that targets CD38
- reduction of NK cell numbers ([1]; 1 μg/mL, 96 hours): approximately 75%
- NK cell frequency and numbers ([1]; 0.01, 0.1 or 1 μg/mL, 96 hours): dose-dependent decrease of NK cell frequency and numbers
- reduction of NK cell numbers ([1]; PBMCs from a different donor, 72 hours): ~57%
- complement dependence of NK cell reduction ([1]; addition of 10% complement): not complement dependent
- T cell numbers or frequency [2]: did not affect T cell numbers or frequency
- activation of CAR T cells [3]: did not induce activation of CAR T cells
- B2M deficient CAR T cell numbers ([3]; 10 μg/mL, 24 hours): did not significantly reduce B2M deficient CAR T cells numbers
- anti-BCMA CAR T cell numbers or frequency ([3]; 72 hour culture, with or without 10% complement): did not affect anti-BCMA CAR T cells numbers or frequency
- protective effect against anti-BCMA CAR T cell lysis ([4]; 1:1 NK:T ratio, 0.1 μg/mL, 60 hours pre-treatment): 91%
- protection from NK cell lysis ([4]; 3:1 NK:CAR T ratio, 1 μg/mL, 60 hours pre-treatment): 85%
- anti-BCMA CAR T cell lysis by pre-treated NK cells ([4]; NK cells pre-treated 60 hours at 0.01, 0.1 or 1 μg/mL, 3:1 NK:T, 24 hr co-culture): reduced anti-BCMA CAR T cell lysis in a dose-dependent manner
- decrease in NK cells ([5]; 1 μg/mL): 29%
- further decrease in NK cells ([5]; 300 μg/mL): 38%
- BCMA CAR T cell numbers [6]: unaffected by the high daratumumab concentrations
- mean tumor volume at day 26 [7]: 1475 mm^3
- historical ORR [8]: ~30%
- hepatitis B reactivation [9]: 1%
- herpes zoster reactivation [9]: 2%
